# Source: paper PMC12467382, “Synthesis and Bioevaluation of Chalcones as Broad-Spectrum Antiviral Compounds Against Single-Stranded RNA Viruses” (Biomolecules, 2025)
# Assays:
# [1] = system: CHO-K1 cells; test: cells; assay type: cell-based, Chinese hamster; settings: for CHOK1 48 h EC10: Chinese hamster; for EC50: Cricetulus griseus, CHO-K1, 48 h, read-out: CHOK1 48 h EC50
# Description: (§1) A cell growth assay using the MTS reagent was conducted to assess the general toxicity of each chalcone compound. Briefly, cell growth was assayed in sterile 96-well microtiter plates (Costar 3599, Corning Inc., Corning, NY, USA) in the presence of each chalcone. Experiments were conducted in triplicate. In a typical experiment, there are two plates. The first is the control plate, which allows one to assess the starting cell population on the day of drug addition (Day 0). The second plate is the test plate where cells are plated and tested with different drug concentrations on Day 0. For example, either CHO cells or Hs27 cells were plated in a 200 µL volume at 1000 cells/well on both the control and test plates and incubated overnight to allow the cells to adhere. On Day 0, 1 μL of PBS was added to the control plate wells so that their total volume was 201 μL. MTS reagent (Promega Cell Titer 96 Aqueous non-radioactive cell proliferation reagent, Promega, Madison, WI, USA) was added (20 μL) to each well on the control plate, and that plate was incubated for 4 h in a 5% CO2 atmosphere at 37 °C and then read on the plate reader.
# (§2) On Day 0, 1 μL of a 200× stock solution of each chalcone was added to the respected well on the test plate, and each condition was tested in triplicate. Drug solutions were prepared in advance in 100% DMSO and dosed so that the final DMSO concentration was 0.5%. For example, 1 μL of chalcone solution was added to the cells plated in each well in 200 μL of media. Of note, the respective chalcone addition occurred after an initial overnight incubation of each cell line in each well to reach Day 0 (the drugging day). After the chalcone was added, the cells were incubated in 5% CO2 for 48 h at 37 °C. After 48 h, the MTS reagent (Promega, Madison, WI, USA) was added (20 μL), and the test plates were incubated for an additional 4 h, and then, absorbance at 490 nm was measured on a BioTek Synergy MX plate reader. […] IC50 values were determined from the corresponding plot of relative absorbance at 490 nm vs. the drug concentration.
# (§3) For highly colored materials like the chalcones, it is important to consider the contribution of the compound’s own absorbance to the MTS assay. To correct for the absorbance contribution of the chalcone itself, we measured each chalcone’s absorbance (Chalcone Abs) at 490 nm at the respective concentration (e.g., 10 µM) and subtracted the absorbance of the media background (blank Abs). This net value was then subtracted out of the Day 2 absorbance value to provide the % relative growth via the following equation:(1) % Relative Growth = (Day 2 Abs−Day 2 blank Abs)−Chalcone Abs−blank Abs−(Day 0 Abs−Day 0 blank Abs)/(Day 2 Control Abs −Day 2 blank Abs)−(Day 0 Abs−Day 0 blank Abs) ×100%
# With the chalcones in hand, we then evaluated their growth-inhibition properties in Chinese hamster ovary (CHO-K1) cells and human Hs27 fibroblast cells. […] The results are shown in Table 2 along with a SAR summary of our findings in the host Hs27 cells.
# [2] = system: Hs27 cells; test: 48 h MTS growth inhibition assay in Hs27 cells; assay type: cell-based, human; settings: for EC50: Homo sapiens, HS27, 48 h, read-out: Hs27 48 h EC50; for Hs27 48 h EC10: highest concentration giving 90% relative new cell growth after 48 h, 0.5% DMSO
# Description: as §1, with “Briefly, cell growth was assayed in sterile 96-well microtiter plates (Costar 3599, Corning Inc., Corning, NY, USA) in the presence of each chalcone.” left out
# as §2, §3
# With the chalcones in hand, we then evaluated their growth-inhibition properties in Chinese hamster ovary (CHO-K1) cells and human Hs27 fibroblast cells.
# [3] = system: PIV5-GFP; test: PIV5-GFP viral GFP expression in Hs27 cells by flow cytometry; assay type: cell-based, parainfluenza virus 5; settings: 10 µM; Hs27 cells infected with PIV5-GFP
# Description: Parainfluenza virus 5 (PIV5) expressing green fluorescence protein (GFP) was derived from cDNA, grown at 37 °C in Madin–Darby bovine kidney (MDBK) cells and titered on CV-1 (African green monkey kidney) cells with a fibroblast morphology as previously described. MDBK and CV-1 cells were the kind gift of Dr. Robert Lamb (Northwestern University). Cells were infected with virus diluted in DMEM supplemented with 10% bovine serum albumin (BSA) for 1 h or mock infected with media alone. Following incubation, cells were washed with phosphate-buffered saline (PBS) and cultured in DMEM supplemented with 2% heat-inactivated (HI) FBS.
# Chalcone treatments were performed in DMEM supplemented with 10% HI FBS at the indicated concentrations and for indicated periods of time. Chalcone stocks were reconstituted in 100% dimethyl sulfoxide (DMSO) at a concentration of 10 mM and were serially diluted to working concentrations in DMSO. DMSO control treatments to test the effect of the vehicle were performed at volumes corresponding to the volume of chalcone added during each experiment (i.e., 1 µL chalcone DMSO solution/1 mL DMEM [10 µM] utilized alongside the DMSO control of 1 µL/1 mL DMEM). For cytotoxicity assays, untreated controls were subtracted from DMSO and chalcone sample values to account for the background signal.
# For cytotoxicity assays, cells were stained with propidium iodide (PI) at a dilution of 1:100. Cell viability was determined via flow cytometry using the CytoFLEX (Beckman Coulter, Brea, CA, USA). CytExpert software (Beckman Coulter, version 2.4) was used to analyze independent events. PIV5 infection was monitored using flow cytometry via the FITC channel by analyzing GFP expression of individual cells. ZIKV infection was monitored utilizing Flavivirus group antigen–antibody (D1-4G2-4-15; Novus Biologicals, Littleton, CO, USA) staining for the ZIKV envelope protein. Cells were fixed and permeabilized using eBioscience Intracellular Fixation and Permeabilization Buffer (Invitrogen, Thermo Fisher Scientific, MA, USA) according to the manufacturer’s instructions. Secondary staining was performed using an anti-Alexa Fluor 488 (AF488) antibody (Invitrogen, Thermo Fisher Scientific, MA, USA). OC43 infection was monitored utilizing a primary antibody targeted toward the OC43 nucleocapsid protein (NP, MAB9013, Sigma-Aldrich, St. Louis, MO, USA). Secondary staining was performed using an AF488 antibody. Cells were fixed and permeabilized as previously described. LACV infection was monitored utilizing an anti-LACV Gc 807.31ab antibody kindly provided by Andrew Pekosv. Secondary staining was performed using an AF488 antibody. Cells were fixed and permeabilized as previously described.
# To measure the effect of chalcone treatment on PIV5 virus growth, Hs27 cells were infected with PIV5-GFP. This engineered negative sense single-stranded RNA virus expresses GFP, which serves as a genome-encoded protein readout. After entering a cell, PIV5 must first undergo primary transcription to convert its genome into mRNA. As genome replication begins, nascent genomes then become templates for further conversion to mRNA and viral gene expression becomes amplified in a process called secondary transcription. For viral proteins to be detectable in cell culture, this amplification must first take place, making the expression of GFP a direct indicator of whether secondary transcription has successfully occurred. […] As shown in the representative data in Figure 4A, ~82% of DMSO-treated PIV5-GFP infected cells were positive for GFP expression. This was reduced to ~2% GFP-positive cells after treatment with 8o. […] These chalcones were therefore selected for further screening for cytotoxicity.
# The GFP IC50 was defined as the concentration of chalcone required to inhibit the GFP expression (as measured via flow cytometry) by 50% when compared to DMSO-treated cells. […]
# [4] = system: mTOR signaling; set-up: method as in PMID 28442256; settings: SGR2 and Huh7.5 cell lines; cited from earlier work
# [5] = system: mTOR signaling; test: Western blot of prps6 and rps6 as readouts of mTOR signaling in PANC-1 cells; assay type: cell-based; settings: 72 h, chalcones 10 µM, rapamycin 10 nM
# Description: PANC-1 cells were cultured in 6-well dishes and were lysed using modified radioimmunoprecipitation assay (RIPA) buffer (20 mM HEPES, pH 7.0, 150 mM NaCl, 1 mM EDTA, 1% NP-40, 1% deoxycholate, and 0.1% sodium dodecyl sulfate [SDS]) containing a complete protease inhibitor cocktail (Roche, Mannheim, Germany) and PhosSTOP phosphatase inhibitor cocktail (Roche, Mannheim, Germany). Protein concentrations were determined using the bicinchoninic acid (BCA) protein assay kit (Pierce, Rockford, IL, USA) according to manufacturer’s instructions. Cell lysates with 25 µg of protein were resolved on 12% sodium dodecyl sulfate-polyacrylamide gel electrophoresis (SDS-PAGE) gels and electro-transferred onto polyvinylidene difluoride (PVDF) membranes (Trans-Blot Turbo Transfer System, BioRad, Hercules, CA, USA). The samples were probed with rabbit monoclonal antibodies for the P-rps6 (1:1000) protein (Cell Signaling, Danvers, MA, USA) and mouse monoclonal antibodies for rps6 (1:1000) (Cell Signaling) and β-actin (1:5000) (Abcam, Waltham, MA, USA) proteins. Blots were visualized using anti-rabbit or anti-mouse horseradish peroxidase (HRP)-conjugated antibodies (Cell Signaling) and chemiluminescence reagent (Thermo Fisher Scientific, Waltham, MA, USA).
# PANC-1 cells were chosen for this study as they are highly dependent on mTOR for their growth. PANC-1 cells were cultured and treated with the positive control rapamycin (10 nM) and chalcones NM5, 8a, 8o, 8s, 8v, and 8w (10 μM) for 72 h. Rapamycin and the chalcones were dissolved in 100% DMSO and dosed so that the final DMSO concentration was 0.1%. Cell lysates were collected and analyzed to determine the relative protein expression levels of rps6, prps6, and β-actin as a loading control (see Figure 12).
Structure (SMILES),CHOK1 48 h EC10 [1] [µM],EC50 [1] [µM],EC50 [2] [µM],Hs27 48 h EC10 [2] [µM],% GFP relative to DMSO treated (10 µM) [3] [%],Effect on mTOR signaling [4],prps6 expression relative to DMSO control [5],total rps6 protein expression relative to DMSO control [5]
"CCOc1ccc(Br)cc1/C=C/C(=O)c1c(O)cccc1OC [Chalcone 8q, (2E)-3-(5-Bromo-2-Ethoxy-Phenyl)-1-(2-Hydroxy-6-Methoxy-Phenyl)-Propenone]",4.3 ± 0.4,6 ± 0.3,9.9 ± 1,2.7 ± 0.04,–,–,–,–
"CCOc1ccc(Br)cc1/C=C/C(=O)c1c(O)cccc1OCCC(C)C [Chalcone 8r, (2E)-3-(5-Bromo-2-Ethoxy-Phenyl)-1-[2-Hydroxy-6-(3-Methyl-Butoxy)-Phenyl]-Propenone]",4.7 ± 0.4,6.8 ± 0.7,16.9 ± 2,9.4 ± 0.7,108.7,–,–,–
"CCOc1ccc(Br)cc1/C=C/C(=O)c1c(O)cccc1OCCc1ccccc1 [Chalcone 8t, (2E)-3-(5-Bromo-2-Ethoxy-Phenyl)-1-[2-Hydroxy-6-Phenethyloxy]-Propenone]",1.1 ± 0.1,2.6 ± 0.2,10.3 ± 0.5,6.4 ± 0.5,84.9,–,–,–
"COc1ccc(Br)cc1/C=C/C(=O)c1c(O)cccc1OCCc1ccccc1 [Chalcone 8u, (2E)-3-(5-Bromo-2-Methoxy-Phenyl)-1-[2-Hydroxy-6-Phenethyloxy]-Propenone]",1.0 ± 0.1,4.3 ± 0.3,4.9 ± 0.6,3.4 ± 0.5,–,–,–,–
"COc1ccc(/C=C/C(=O)c2c(O)cccc2OCc2ccccc2)c(OC)c1OC [Chalcone 8y, (2E)-1-(2-Benzloxy-6-Hydroxy-Phenyl)-3-(2,3,4-Trimethoxy-Phenyl)-Propenone]",7.2 ± 0.6,15.8 ± 1,7.7 ± 0.2,6.3 ± 0.2,–,–,–,–
"COc1ccc(/C=C/C(=O)c2cc(Br)cc(Br)c2O)cc1OC [NM5, (2E)-1-(3,5-Dibromo-2-hydroxyphenyl)-3-(3,4-dimethoxyphenyl)-2-propen-1-one, reference compound]",1.1 ± 0.1,6.2 ± 0.3,1.8 ± 0.1,1.0 ± 0.1,–,inhibit mTOR signaling,stimulate this prps6 mTOR readout,–
"CO[C@H]1C[C@@H]2CC[C@@H](C)[C@@](O)(O2)C(=O)C(=O)N2CCCC[C@H]2C(=O)O[C@H]([C@H](C)C[C@@H]2CC[C@@H](O)[C@H](OC)C2)CC(=O)[C@H](C)/C=C(\C)[C@@H](O)[C@@H](OC)C(=O)[C@H](C)C[C@H](C)/C=C/C=C/C=C/1C [rapamycin, reference compound]",–,–,–,–,–,–,loss of prps6 expression,no significant difference
